Laboratory results as given in paper PMC12607616, “Elucidation of a bacterial pathway for catabolism of the β–β-linked dilignol pinoresinol” (mBio, 2025).
Like-named read-outs stand apart in the source and are kept apart here.

Tested on: T1, PinZ
T1 construct: full-length, N-terminal hexahistidine tag kept (pET-28a(+), pJM492), E. coli BL21 Star (DE3)
Assay: steady-state kinetics, reversed-phase HPLC
Assay type: biochemical, Novosphingobium rhizosphaerae
Conditions: NADPH co-substrate, 20 mM Tris-HCl pH 7.0, 30 °C, 10 min, read-out: apparent Km

Km (~88% e.e. (+)-pinoresinol preparation)	Km (racemate)	Structure (SMILES)
22.1 ± 3.2 µM	–	COc1cc([C@H]2OC[C@H]3[C@@H]2CO[C@@H]3c2ccc(O)c(OC)c2)ccc1O [(+)-pinoresinol]
–	27 ± 6.6 µM	COc1cc(C2OCC3C(c4ccc(O)c(OC)c4)OCC23)ccc1O (racemic) [(±)-pinoresinol]
